In US12473250B2, “Molecular design of new antibiotics and antibiotic adjuvants against MCR strains” (priority 2019, dated 2025):

Experiments:
[1] = tested on: ENT CLOACAE multi-drug resistant strains; experiment: Synergy of LC100 with colistin against multi-drug resistant strains (Table 5); type: cell-based, E. cloacae
Description: The MICs of the individual drugs and LC compound in combinations were determined using the broth microdilution technique as recommended by the CLSI whereby the two anti-microbial agents were added in an equal amount. (e.g.: 50 μL of Colistin: 50 μL of LC compounds). Diluted media containing compounds and antibiotics will be serially diluted 2-fold, and LC compounds and antibiotics alone or in combination will be assayed at fixed synergy concentration. In all cases, the lowest concentration at which no visible growth occurred was be recorded to be the MIC value of individual and combined antibacterial agents. The results were obtained after 24 hours of incubation.

[2] = tested on: colistin resistant MCR (−) E. Coli strains; experiment: Synergy study: colistin MIC in the presence of compound; type: cell-based
Method in brief: (§1)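 CLSI broth microdilution with colistin and LC compound added in equal amounts, 2-fold serial dilution, alone or combined at fixed synergy concentration. MIC taken as lowest concentration with no visible growth after 24 hours of incubation.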

[3] = tested on: colistin resistant MCR (−) E. Cloacae strain 7023456439; experiment: as above; type: cell-based; settings: strain 7023456439 E. Cloacae
Method in brief: as §1

In the case of `CCN(CC)CCCCOc1ccc(/C=C/C(=O)c2ccc(OCCCCN(CC)CC)c(CC=C(C)C)c2O)cc1` [LC100], the “Colistin MIC in the presence of LC100” value ([1]; strain ENT CLOACAE 6780, LC 100 2 μg) was 0.39 µg/mL, the “Colistin MIC in the presence of LC100” value ([1]; strain ENT CLOACAE 6780, LC 100 5 μg) was less than 0.0975 µg/mL and the “Colistin MIC in the presence of LC100” value ([1]; strain ENT CLOACAE 21489, LC 100 2 μg) was 0.195 µg/mL. The “Colistin MIC in the presence of LC100” value ([1]; strain ENT CLOACAE 21489, LC 100 5 μg) was less than 0.0975 µg/mL, the “Colistin MIC in the presence of LC100” value ([1]; strain ENT CLOACAE 30063, LC 100 2 μg) was 25 µg/mL and the “Colistin MIC in the presence of LC100” value ([1]; strain ENT CLOACAE 30063, LC 100 5 μg) was 6.25 µg/mL. For the same compound, the “Colistin MIC in the presence of LC100” value ([1]; strain ENT CLOACAE 44095, LC 100 2 μg) was greater than 25 µg/mL, the “Colistin MIC in the presence of LC100” value ([1]; strain ENT CLOACAE 44095, LC 100 5 μg) was greater than 25 µg/mL and the “colistin level to which E. coli became sensitive in the presence of LC100” value ([2]; resistant bacteria without mcr-1) was less than 0.5 µg/mL. The “Colistin MIC in the presence of the compound” value (“Colistin MIC … of the compound” below) ([2]; strain 6083672926, MCR(−), compound at 2 μg) was less than 0.0975 µg/mL, the “Colistin MIC … of the compound” value ([2]; strain 6083672926, MCR(−), compound at 5 μg (Table 2a: 5 ug/ml)) was 0.195 µg/mL and the “Colistin MIC … of the compound” value ([2]; strain 6083672926, MCR(−), compound at 10 μg (Table 2a: 10 ug/ml)) was less than 0.098 µg/mL. The “Colistin MIC … of the compound” value ([2]; strain 6083672926, MCR(−), compound at 10 μg (Table 2a: 10 ug/ml), listed as LC 100) was less than 0.0975 µg/mL, the “Colistin MIC … of the compound” value ([2]; strain 7023446108, MCR(−), compound at 2 μg) was less than 0.0975 µg/mL and the “Colistin MIC … of the compound” value ([2]; strain 7023446108, MCR(−), compound at 5 μg (Table 2a: 5 ug/ml)) was 0.195 µg/mL. For the same compound, the “Colistin MIC … of the compound” value ([2]; strain 7023446108, MCR(−), compound at 10 μg (Table 2a: 10 ug/ml)) was less than 0.098 µg/mL, the “Colistin MIC … of the compound” value ([2]; strain 7023446108, MCR(−), compound at 10 μg (Table 2a: 10 ug/ml), listed as LC 100) was less than 0.0975 µg/mL and the “Colistin MIC … of the compound” value ([2]; strain 7033607097, MCR(−), compound at 2 μg) was less than 0.0975 µg/mL. For the same compound, the “Colistin MIC … of the compound” value ([2]; strain 7033607097, MCR(−), compound at 5 μg (Table 2a: 5 ug/ml)) was 0.195 µg/mL, the “Colistin MIC … of the compound” value ([2]; strain 7033607097, MCR(−), compound at 10 μg (Table 2a: 10 ug/ml)) was less than 0.098 µg/mL and the “Colistin MIC … of the compound” value ([2]; strain 7033607097, MCR(−), compound at 10 μg (Table 2a: 10 ug/ml), listed as LC 100) was less than 0.0975 µg/mL. The “Colistin MIC … of the compound” value ([3]; compound at 2 μg) was less than 0.0975 µg/mL, the “Colistin MIC … of the compound” value ([3]; compound at 5 μg (Table 2a: 5 ug/ml)) was 0.195 µg/mL and the “Colistin MIC … of the compound” value ([3]; compound at 10 μg (Table 2a: 10 ug/ml)) was less than 0.098 µg/mL. For the same compound, the “Colistin MIC … of the compound” value ([3]; compound at 10 μg (Table 2a: 10 ug/ml), listed as LC 100) was less than 0.0975 µg/mL.
